These results are taken from patent US4245099A, “2-Acyl-6-aminomethylphenol derivatives” (Ono Pharmaceutical Co., Ltd., priority 1978, dated 1981).

Counter-ions that a name gives are not always drawn.

Series [1] deals with Carrageenan-Induced Edema in Rat Paws. In words: Carrageenan-induced edema in rat paws (anti-inflammatory effect). The class given is in vivo. As to conditions: 3 h, oral, carrageenan injected one hour after dosing, swelling measured at third hour of carrageenan injection, read-out: % Inhibition of Paw Edema. Here is the method: For example, in a laboratory experiment, one hour after oral administration with these compounds, the rats were subcutaneously injected with 0.1 ml of 1% carrageenan suspension on the plantar surface of the right hind paw. The swelling was measured at the third hour of carrageenan injection. Anti-inflammatory effect of the compounds was determined as percentage inhibition of the swelling, taking the swelling in the control groups as 100%.

For series [2], the system named is acetic acid stretching in mice. Kind of series: Acetic acid stretching method (analgesic effect in mice). The note with it: male mice, oral, 0.6% acetic acid i.p. 30 minutes later, counted for 10 minutes from 5 minutes after injection. The class given is in vivo. On the procedure:
Male mice were given orally with these compounds and 30 minutes later injected intraperitoneally with 0.1 ml/10 g of 0.6% acetic acid. The number of stretching was countered for 10 minutes from 5 minutes after injection of acetic acid. The value was expressed in the percentage of control.

The next series concerns ulcer in rats. In words: Sign of ulcer upon oral administration in rats. The note with it: 200 mg/kg. The class given is in vivo, rat.
Series [3] relates to pain threshold of inflamed foot (beer yeast) in rats. Kind of series: Randall-Selitto method (analgesic effect in rat). The class given is in vivo. As to conditions: male rats, oral, 2 hours after 20% beer yeast into subplantar area. Here is the method: Male rats were administered orally with 2-propionyl-4-tert-butyl-6-aminomethylphenol hydrochloride 2 hours after injection of 0.1 ml of 20% suspension beer yeast into subplantar area of one hind paw. Pain threshold determination was made on the normal and inflamed foot, using apparatus similar to that described by Randall-Selitto. Pain threshold change was expressed as percentage of control.

Take `CSCCC(=O)c1cc(C(C)(C)C)cc(CN)c1O` [2-(3-Methylthiopropionyl)-4-tert-butyl-6-aminomethylphenol hydrochloride]: in series [1], the inhibition in vivo at 30 mg/kg came to 29.3%.

Take `CC(=O)c1cc(C(C)(C)C)cc(CN)c1O` [2-Acetyl-4-tert-butyl-6-aminomethylphenol hydrochloride]: the inhibition in vivo at 30 mg/kg in series [1] came to 46.7%.

As to `CC(=O)c1cc2c(c(CN)c1O)CCCC2C` (centres unmarked) [1-Aminomethyl-3-acetyl-5-methyl-5,6,7,8-tetrahydro-2-naphthol hydrochloride], the inhibition in vivo at 30 mg/kg in series [1] is 66.3%.

Take `CC(C)C(=O)c1cc(C(C)(C)C)cc(CN)c1O.Cl` [2-Isobutyryl-4-tert-butyl-6-aminomethylphenol hydrochloride]: the inhibition in vivo at 30 mg/kg in series [1] was 55.5%. For the same compound, in series [2] (50 mg/kg), the “% Inhibition (acetic acid stretching)” value is given as 49.7%.

On to `CC(=O)c1c(O)c(CN)cc2c1CCCC2` [1-Acetyl-3-aminomethyl-5,6,7,8-tetrahydro-2-naphthol hydrochloride], for which the inhibition in vivo at 30 mg/kg in series [1] worked out at 55.3%.

Turning to `CCCC(=O)c1cc(C(C)(C)C)cc(CN)c1O` [2-Butyryl-4-tert-butyl-6-aminomethylphenol hydrochloride], in series [1], the inhibition in vivo at 30 mg/kg stood at 34.1%.

Turning to `CC(C)(C)c1cc(CN)c(O)c(C(=O)c2ccccc2)c1` [2-Benzoyl-4-tert-butyl-6-aminomethylphenol hydrochloride], the inhibition in vivo at 30 mg/kg in series [1] amounted to 47.6%.

For `CC(C)(C)c1cc(CN)c(O)c(C(=O)C2CCCCC2)c1` [2-Cyclohexylcarbonyl-4-tert-butyl-6-aminomethylphenol hydrochloride], the inhibition in vivo at 30 mg/kg in series [1] worked out at 27.1%.

In the case of `CC(C)(C)c1cc(CN)c(O)c(C(=O)CCl)c1` [2-Chloroacetyl-4-tert-butyl-6-aminomethylphenol hydrochloride], in series [1], the inhibition in vivo at 30 mg/kg came out at 59.2%.

In the case of `CC(C)(C)c1cc(CN)c(O)c(C(=O)Cc2ccccc2)c1` [2-Phenylacetyl-4-tert-butyl-6-aminomethylphenolhydrochloride], the inhibition in vivo at 30 mg/kg in series [1] came out at 20.3%.

On to `CCC(=O)c1cc(C(C)(C)C)cc(CN)c1O.Cl` [2-Propionyl-4-tert-butyl-6-aminomethylphenol hydrochloride], for which the inhibition in vivo at 30 mg/kg in series [1] is 72.8%. The sign of ulcer entry with ulcer in rats is listed as “did not show any sign of ulcer”. For the same compound, the “% Inhibition (Randall-Selitto pain threshold change)” value in series [3] (50 mg/kg) came to 70%; in series [3] (100 mg/kg), 113%. Besides, the “% Inhibition (acetic acid stretching)” value in series [2] (10 mg/kg) was determined as 35.3%; in series [2] (20 mg/kg), 61.3%; in series [2] (50 mg/kg), 85.3%.

In the case of `CCC(=O)c1c(O)c(CN)cc2c1CCCC2` [1-Propionyl-3-aminomethyl-5,6,7,8-tetrahydro-2-naphthol hydrochloride], the inhibition in vivo at 30 mg/kg in series [1] came to 37.4%.

With `CC(C)(C)c1cc(CN)c(O)c(C(=O)c2ccc(Br)cc2)c1` [2-(4-Bromobenzoyl)-4-tert-butyl-6-aminomethylphenol hydrochloride], the inhibition in vivo at 30 mg/kg in series [1] amounted to 35%.
